Source: the kinase profiling compilation of Christmann-Franck et al. (2016)
Several values for one entry are separate records, joined by “and”; a condition that tells them apart may be missing. Equal entries are not always repeated.

Legend:
Test in all cases: radiometric filter-binding kinase assay, Kinase HotSpot
Conditions in all cases: compound 0.5 µM; ATP 10 µM
ADRBK2 (human) = ADRBK2 (human) (UniProt P35626)
AKT3 (human) = AKT3 (human) (UniProt Q9Y243)
ALK (human) = ALK (human) (UniProt Q9UM73)
CAMK1D (human) = CAMK1D (human) (UniProt Q8IU85)
CDC42BPB (human) = CDC42BPB (human) (UniProt Q9Y5S2)
CDK5 CDK5R1 p35 (human) = CDK5 CDK5R1 p35 (human) (UniProt Q00535+Q15078)
CDK9 CCNT1 (human) = CDK9 CCNT1 (human) (UniProt P50750+O60563)
CHUK (human) = CHUK (human) (UniProt O15111)
CLK3 (human) = CLK3 (human) (UniProt P49761)
CSNK1E (human) = CSNK1E (human) (UniProt P49674)
CSNK2A2 (human) = CSNK2A2 (human) (UniProt P19784)
EPHA2 (human) = EPHA2 (human) (UniProt P29317)
EPHA5 (human) = EPHA5 (human) (UniProt P54756)
ERBB4 (human) = ERBB4 (human) (UniProt Q15303)
FGFR4 (human) = FGFR4 (human) (UniProt P22455)
GRK4 (human) = GRK4 (human) (UniProt P32298)
HIPK3 (human) = HIPK3 (human) (UniProt Q9H422)
IKBKB (human) = IKBKB (human) (UniProt O14920)
MAP3K11 (human) = MAP3K11 (human) (UniProt Q16584)
MAPK1 (human) = MAPK1 (human) (UniProt P28482)
MAPK12 (human) = MAPK12 (human) (UniProt P53778)
MAPK13 (human) = MAPK13 (human) (UniProt O15264)
MAPK3 (human) = MAPK3 (human) (UniProt P27361)
MARK4 (human) = MARK4 (human) (UniProt Q96L34)
NLK (human) = NLK (human) (UniProt Q9UBE8)
NTRK1 (human) = NTRK1 (human) (UniProt P04629)
NTRK2 (human) = NTRK2 (human) (UniProt Q16620)
NTRK3 (human) = NTRK3 (human) (UniProt Q16288)
PAK3 (human) = PAK3 (human) (UniProt O75914)
PKN2 (human) = PKN2 (human) (UniProt Q16513)
PRKACA (human) = PRKACA (human) (UniProt P17612)
PRKCE (human) = PRKCE (human) (UniProt Q02156)
PRKCG (human) = PRKCG (human) (UniProt P05129)
PRKG1 (human) = PRKG1 (human) (UniProt Q13976)
PRKG2 (human) = PRKG2 (human) (UniProt Q13237)
RAF1 (human) = RAF1 (human) (UniProt P04049)
ROCK2 (human) = ROCK2 (human) (UniProt O75116)
STK11 (human) = STK11 (human) (UniProt Q15831)
TGFBR2 (human) = TGFBR2 (human) (UniProt P37173)
TSSK1B (human) = TSSK1B (human) (UniProt Q9BXA7)
ULK1 (human) = ULK1 (human) (UniProt O75385)
WNK3 (human) = WNK3 (human) (UniProt Q9BYP7)

Sequence of NLK (human) (Q9UBE8 whole entry, looked up): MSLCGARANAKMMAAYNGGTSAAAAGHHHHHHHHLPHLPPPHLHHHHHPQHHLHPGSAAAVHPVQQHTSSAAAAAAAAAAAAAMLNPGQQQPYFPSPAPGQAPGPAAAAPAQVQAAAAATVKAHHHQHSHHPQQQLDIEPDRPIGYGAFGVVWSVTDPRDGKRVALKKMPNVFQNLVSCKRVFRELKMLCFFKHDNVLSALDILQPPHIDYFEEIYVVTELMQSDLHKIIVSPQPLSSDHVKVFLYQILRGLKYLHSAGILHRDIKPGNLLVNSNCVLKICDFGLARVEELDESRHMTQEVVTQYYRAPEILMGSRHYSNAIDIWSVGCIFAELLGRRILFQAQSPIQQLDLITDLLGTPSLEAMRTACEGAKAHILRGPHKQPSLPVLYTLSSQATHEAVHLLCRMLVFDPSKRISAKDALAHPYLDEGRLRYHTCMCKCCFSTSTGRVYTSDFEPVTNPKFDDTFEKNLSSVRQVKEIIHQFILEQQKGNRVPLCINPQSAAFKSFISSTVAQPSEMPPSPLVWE
Sequence of PRKG1 (human) (Q13976 whole entry, looked up): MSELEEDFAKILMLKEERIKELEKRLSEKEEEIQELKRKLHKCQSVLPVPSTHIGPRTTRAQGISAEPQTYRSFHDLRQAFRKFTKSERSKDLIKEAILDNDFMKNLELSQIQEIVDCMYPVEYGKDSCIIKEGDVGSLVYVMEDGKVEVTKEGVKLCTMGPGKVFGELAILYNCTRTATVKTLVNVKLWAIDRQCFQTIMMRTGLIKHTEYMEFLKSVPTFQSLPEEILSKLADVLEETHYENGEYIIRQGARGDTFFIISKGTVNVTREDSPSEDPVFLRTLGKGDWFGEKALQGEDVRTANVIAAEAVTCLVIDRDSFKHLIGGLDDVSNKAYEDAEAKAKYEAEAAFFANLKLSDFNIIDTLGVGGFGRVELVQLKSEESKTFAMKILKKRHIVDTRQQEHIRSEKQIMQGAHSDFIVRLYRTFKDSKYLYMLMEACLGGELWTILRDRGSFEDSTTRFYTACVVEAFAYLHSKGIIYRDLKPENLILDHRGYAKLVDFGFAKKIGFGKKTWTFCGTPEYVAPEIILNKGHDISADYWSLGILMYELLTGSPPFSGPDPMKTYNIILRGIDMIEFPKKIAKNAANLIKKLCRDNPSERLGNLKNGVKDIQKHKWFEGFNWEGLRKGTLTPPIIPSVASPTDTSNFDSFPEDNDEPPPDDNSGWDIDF
Sequence of MAPK13 (human) (O15264 whole entry, looked up): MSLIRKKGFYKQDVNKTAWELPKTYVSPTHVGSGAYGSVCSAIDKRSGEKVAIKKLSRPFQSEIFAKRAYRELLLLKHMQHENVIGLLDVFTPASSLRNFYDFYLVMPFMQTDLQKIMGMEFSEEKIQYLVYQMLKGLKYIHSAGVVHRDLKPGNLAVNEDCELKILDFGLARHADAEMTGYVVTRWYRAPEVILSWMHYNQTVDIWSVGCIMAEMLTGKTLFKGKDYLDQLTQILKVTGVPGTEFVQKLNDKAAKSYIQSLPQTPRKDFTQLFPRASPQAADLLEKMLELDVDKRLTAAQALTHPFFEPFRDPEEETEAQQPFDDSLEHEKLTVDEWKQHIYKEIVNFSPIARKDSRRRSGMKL
Sequence of CDK9 CCNT1 (human) (O60563 whole entry, looked up): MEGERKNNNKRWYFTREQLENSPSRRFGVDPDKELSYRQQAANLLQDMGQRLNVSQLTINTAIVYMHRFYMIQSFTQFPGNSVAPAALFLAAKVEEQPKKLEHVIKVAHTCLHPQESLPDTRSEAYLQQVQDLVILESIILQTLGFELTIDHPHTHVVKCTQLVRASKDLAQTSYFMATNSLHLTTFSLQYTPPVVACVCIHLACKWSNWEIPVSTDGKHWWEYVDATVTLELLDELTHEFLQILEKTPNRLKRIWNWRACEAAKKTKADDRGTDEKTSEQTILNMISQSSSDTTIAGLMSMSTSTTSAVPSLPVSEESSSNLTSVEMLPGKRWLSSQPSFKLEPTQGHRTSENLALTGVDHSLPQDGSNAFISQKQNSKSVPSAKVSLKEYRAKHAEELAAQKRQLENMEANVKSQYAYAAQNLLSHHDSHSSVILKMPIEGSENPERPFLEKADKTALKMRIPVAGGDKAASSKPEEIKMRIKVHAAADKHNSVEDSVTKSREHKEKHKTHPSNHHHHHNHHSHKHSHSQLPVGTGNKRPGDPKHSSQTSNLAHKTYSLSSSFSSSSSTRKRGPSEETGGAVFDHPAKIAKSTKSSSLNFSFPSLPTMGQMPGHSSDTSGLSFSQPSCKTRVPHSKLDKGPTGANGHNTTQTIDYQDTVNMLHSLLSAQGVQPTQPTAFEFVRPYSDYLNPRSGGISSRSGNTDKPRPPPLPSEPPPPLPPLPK
Sequence of CDK9 CCNT1 (human) (P50750 whole entry, looked up): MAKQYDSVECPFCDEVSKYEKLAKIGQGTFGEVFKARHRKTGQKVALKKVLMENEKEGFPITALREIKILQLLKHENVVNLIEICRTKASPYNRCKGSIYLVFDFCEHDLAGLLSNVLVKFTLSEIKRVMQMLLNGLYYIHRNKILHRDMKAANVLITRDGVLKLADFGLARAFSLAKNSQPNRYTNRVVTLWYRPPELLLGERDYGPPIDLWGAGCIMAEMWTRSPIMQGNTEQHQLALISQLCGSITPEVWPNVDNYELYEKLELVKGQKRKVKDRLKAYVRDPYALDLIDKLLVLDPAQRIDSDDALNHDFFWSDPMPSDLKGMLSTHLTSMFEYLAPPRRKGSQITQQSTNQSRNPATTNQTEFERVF
Sequence of PKN2 (human) (Q16513 whole entry, looked up): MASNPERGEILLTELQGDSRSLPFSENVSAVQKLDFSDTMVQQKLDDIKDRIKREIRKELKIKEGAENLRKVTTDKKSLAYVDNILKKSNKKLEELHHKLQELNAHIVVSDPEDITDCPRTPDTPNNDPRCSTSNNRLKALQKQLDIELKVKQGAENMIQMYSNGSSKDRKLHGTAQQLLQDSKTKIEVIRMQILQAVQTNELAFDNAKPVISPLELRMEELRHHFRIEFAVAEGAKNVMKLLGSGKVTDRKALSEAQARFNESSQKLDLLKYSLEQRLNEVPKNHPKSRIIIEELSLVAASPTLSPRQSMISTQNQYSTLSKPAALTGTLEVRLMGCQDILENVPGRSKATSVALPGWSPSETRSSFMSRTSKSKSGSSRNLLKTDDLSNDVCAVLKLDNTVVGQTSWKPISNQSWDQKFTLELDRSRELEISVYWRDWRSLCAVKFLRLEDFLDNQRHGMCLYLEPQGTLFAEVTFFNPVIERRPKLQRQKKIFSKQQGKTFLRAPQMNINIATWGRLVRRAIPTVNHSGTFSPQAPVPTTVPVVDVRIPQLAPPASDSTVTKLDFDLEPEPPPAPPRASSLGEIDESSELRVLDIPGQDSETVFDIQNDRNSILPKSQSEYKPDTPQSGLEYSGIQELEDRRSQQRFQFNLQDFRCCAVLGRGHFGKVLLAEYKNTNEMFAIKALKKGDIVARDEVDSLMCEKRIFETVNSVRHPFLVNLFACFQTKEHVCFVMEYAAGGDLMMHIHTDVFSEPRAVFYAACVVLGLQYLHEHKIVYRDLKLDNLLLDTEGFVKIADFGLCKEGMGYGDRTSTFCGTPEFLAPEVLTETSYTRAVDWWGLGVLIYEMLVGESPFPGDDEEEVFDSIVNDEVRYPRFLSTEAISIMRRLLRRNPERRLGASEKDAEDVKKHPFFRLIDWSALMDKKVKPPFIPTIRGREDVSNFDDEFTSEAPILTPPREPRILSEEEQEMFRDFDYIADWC
Sequence of STK11 (human) (Q15831 whole entry, looked up): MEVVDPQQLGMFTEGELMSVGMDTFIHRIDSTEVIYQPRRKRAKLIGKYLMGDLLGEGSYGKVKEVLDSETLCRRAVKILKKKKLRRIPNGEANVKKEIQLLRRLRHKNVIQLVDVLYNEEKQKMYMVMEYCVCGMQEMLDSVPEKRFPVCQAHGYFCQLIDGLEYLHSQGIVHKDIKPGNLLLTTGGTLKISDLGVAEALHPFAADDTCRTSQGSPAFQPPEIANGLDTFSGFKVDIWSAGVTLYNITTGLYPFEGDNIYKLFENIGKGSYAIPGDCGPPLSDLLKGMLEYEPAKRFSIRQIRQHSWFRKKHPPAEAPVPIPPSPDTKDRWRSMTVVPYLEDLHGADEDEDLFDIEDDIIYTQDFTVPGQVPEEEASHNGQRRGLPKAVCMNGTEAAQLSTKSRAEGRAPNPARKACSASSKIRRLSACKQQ
Sequence of NTRK1 (human) (P04629 whole entry, looked up): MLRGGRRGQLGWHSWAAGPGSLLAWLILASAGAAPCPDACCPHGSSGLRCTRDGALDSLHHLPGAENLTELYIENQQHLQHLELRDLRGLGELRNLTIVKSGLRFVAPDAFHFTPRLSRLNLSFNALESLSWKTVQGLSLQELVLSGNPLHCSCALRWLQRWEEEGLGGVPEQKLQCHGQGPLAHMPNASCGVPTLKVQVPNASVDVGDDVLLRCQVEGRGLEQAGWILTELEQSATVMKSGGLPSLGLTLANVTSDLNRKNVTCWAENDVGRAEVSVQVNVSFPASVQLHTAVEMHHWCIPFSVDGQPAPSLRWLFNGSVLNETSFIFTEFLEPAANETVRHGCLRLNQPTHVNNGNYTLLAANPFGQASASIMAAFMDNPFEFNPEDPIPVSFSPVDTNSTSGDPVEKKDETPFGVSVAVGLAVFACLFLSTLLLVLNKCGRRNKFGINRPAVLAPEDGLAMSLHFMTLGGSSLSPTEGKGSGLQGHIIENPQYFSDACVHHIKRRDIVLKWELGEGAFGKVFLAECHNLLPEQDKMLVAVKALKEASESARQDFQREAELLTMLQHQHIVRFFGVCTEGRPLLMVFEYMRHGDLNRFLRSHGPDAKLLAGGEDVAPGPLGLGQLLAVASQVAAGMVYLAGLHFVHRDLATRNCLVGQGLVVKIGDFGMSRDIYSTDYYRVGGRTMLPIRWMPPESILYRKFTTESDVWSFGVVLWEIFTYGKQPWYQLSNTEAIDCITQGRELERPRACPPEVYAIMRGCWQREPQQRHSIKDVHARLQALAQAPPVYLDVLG

`N#C/C(=C(/N)Sc1ccc(N)cc1)c1ccccc1C(F)(F)F` showed a residual activity (ADRBK2 (human)) of 101%, a residual activity (AKT3 (human)) of 96.2% and a residual activity (ALK (human)) of 100%. It also gave a residual activity (CAMK1D (human)) of 129%, a residual activity (CDC42BPB (human)) of 104% and a residual activity (CDK5 CDK5R1 p35 (human)) of 103%. It also gave a residual activity (CDK9 CCNT1 (human)) of 97.7%, a residual activity (CHUK (human)) of 102% and a residual activity (CLK3 (human)) of 103%. It also gave a residual activity (CSNK1E (human)) of 95.9%, a residual activity (CSNK2A2 (human)) of 86% and a residual activity (EPHA2 (human)) of 104%. The residual activity (EPHA5 (human)) was 116%, the residual activity (ERBB4 (human)) was 89.9% and the residual activity (FGFR4 (human)) was 108%. It also gave a residual activity (GRK4 (human)) of 98.4%, a residual activity (HIPK3 (human)) of 114% and a residual activity (IKBKB (human)) of 100%. It also gave a residual activity (MAP3K11 (human)) of 99.9%, a residual activity (MAPK1 (human)) of 86% and a residual activity (MAPK12 (human)) of 97.4%. The residual activity (MAPK13 (human)) was 104%, the residual activity (MAPK3 (human)) was 116% and the residual activity (MARK4 (human)) was 101%. The residual activity (NLK (human)) was 108%, the residual activity (NTRK1 (human)) was 109% and the residual activity (NTRK2 (human)) was 103%. The residual activity (NTRK3 (human)) was 101%, the residual activity (PAK3 (human)) was 99.2% and the residual activity (PKN2 (human)) was 99.9%. For the same molecule, the residual activity (PRKACA (human)) was 109%, the residual activity (PRKCE (human)) was 104% and the residual activity (PRKCG (human)) was 99.5%. For the same molecule, the residual activity (PRKG1 (human)) was 100% and 98.8%, the residual activity (PRKG2 (human)) was 113% and the residual activity (RAF1 (human)) was 103%. The residual activity (ROCK2 (human)) was 100%, the residual activity (STK11 (human)) was 102% and the residual activity (TGFBR2 (human)) was 113%. It also gave a residual activity (TSSK1B (human)) of 103%, a residual activity (ULK1 (human)) of 99.6% and a residual activity (WNK3 (human)) of 94.9%.

For `CCN(CC)CCNC(=O)c1c(C)[nH]c(/C=C2\C(=O)Nc3ccc(Cl)cc32)c1C`, the residual activity (ADRBK2 (human)) was 97.8%, the residual activity (AKT3 (human)) was 84.2% and the residual activity (ALK (human)) was 3.45%. It also gave a residual activity (CAMK1D (human)) of 60.2%, a residual activity (CDC42BPB (human)) of 96.1% and a residual activity (CDK5 CDK5R1 p35 (human)) of 86.2%. It also gave a residual activity (CDK9 CCNT1 (human)) of 58.8%, a residual activity (CHUK (human)) of 102% and a residual activity (CLK3 (human)) of 101%. The residual activity (CSNK1E (human)) was 46.7%, the residual activity (CSNK2A2 (human)) was 64.3% and the residual activity (EPHA2 (human)) was 93.5%. The residual activity (EPHA5 (human)) was 90.4%, the residual activity (ERBB4 (human)) was 86.1% and the residual activity (FGFR4 (human)) was 70.5%. The residual activity (GRK4 (human)) was 80.8%, the residual activity (HIPK3 (human)) was 50.8% and the residual activity (IKBKB (human)) was 101%. It also gave a residual activity (MAP3K11 (human)) of 21%, a residual activity (MAPK1 (human)) of 97.1% and a residual activity (MAPK12 (human)) of 96.6%. For the same molecule, the residual activity (MAPK13 (human)) was 104%, the residual activity (MAPK3 (human)) was 98.8% and the residual activity (MARK4 (human)) was 7.19%. It also gave a residual activity (NLK (human)) of 101%, a residual activity (NTRK1 (human)) of 8.73% and a residual activity (NTRK2 (human)) of 8.43%. It also gave a residual activity (NTRK3 (human)) of 1.87%, a residual activity (PAK3 (human)) of 93.8% and a residual activity (PKN2 (human)) of 84.4%. The residual activity (PRKACA (human)) was 90%, the residual activity (PRKCE (human)) was 102% and the residual activity (PRKCG (human)) was 101%. The residual activity (PRKG1 (human)) was 64.2% and 76.4%, the residual activity (PRKG2 (human)) was 82.6% and the residual activity (RAF1 (human)) was 117%. It also gave a residual activity (ROCK2 (human)) of 73.5%, a residual activity (STK11 (human)) of 80.7% and a residual activity (TGFBR2 (human)) of 113%. It also gave a residual activity (TSSK1B (human)) of 8.45%, a residual activity (ULK1 (human)) of 13.6% and a residual activity (WNK3 (human)) of 86.3%.

For `Cc1ccc(NC2=CC(=O)c3sc(C)nc3C2=O)cc1`, the residual activity (ADRBK2 (human)) was 84.5%, the residual activity (AKT3 (human)) was 92.8% and the residual activity (ALK (human)) was 105%. It also gave a residual activity (CAMK1D (human)) of 100%, a residual activity (CDC42BPB (human)) of 109% and a residual activity (CDK5 CDK5R1 p35 (human)) of 86.3%. For the same molecule, the residual activity (CDK9 CCNT1 (human)) was 97.6%, the residual activity (CHUK (human)) was 91.9% and the residual activity (CLK3 (human)) was 98.6%. The residual activity (CSNK1E (human)) was 93.4%, the residual activity (CSNK2A2 (human)) was 87.8% and the residual activity (EPHA2 (human)) was 102%. For the same molecule, the residual activity (EPHA5 (human)) was 98.2%, the residual activity (ERBB4 (human)) was 98.5% and the residual activity (FGFR4 (human)) was 86.7%. It also gave a residual activity (GRK4 (human)) of 93.1%, a residual activity (HIPK3 (human)) of 101% and a residual activity (IKBKB (human)) of 97.3%. The residual activity (MAP3K11 (human)) was 101%, the residual activity (MAPK1 (human)) was 91.4% and the residual activity (MAPK12 (human)) was 99.3%. The residual activity (MAPK13 (human)) was 105%, the residual activity (MAPK3 (human)) was 100% and the residual activity (MARK4 (human)) was 102%. For the same molecule, the residual activity (NLK (human)) was 107%, the residual activity (NTRK1 (human)) was 80.6% and the residual activity (NTRK2 (human)) was 100%. It also gave a residual activity (NTRK3 (human)) of 94%, a residual activity (PAK3 (human)) of 97.5% and a residual activity (PKN2 (human)) of 115%. For the same molecule, the residual activity (PRKACA (human)) was 95.9%, the residual activity (PRKCE (human)) was 96.3% and the residual activity (PRKCG (human)) was 77%. For the same molecule, the residual activity (PRKG1 (human)) was 104% and 96.3%, the residual activity (PRKG2 (human)) was 60.8% and the residual activity (RAF1 (human)) was 90.5%. The residual activity (ROCK2 (human)) was 85.1%, the residual activity (STK11 (human)) was 85.6% and the residual activity (TGFBR2 (human)) was 77.6%. It also gave a residual activity (TSSK1B (human)) of 115%, a residual activity (ULK1 (human)) of 114% and a residual activity (WNK3 (human)) of 102%.

`O=C1NC(=O)C(c2cn(CCCn3ccnc3)c3ccccc23)=C1Nc1ccccc1` gave a residual activity (ADRBK2 (human)) of 97.9%, a residual activity (AKT3 (human)) of 71% and a residual activity (ALK (human)) of 97.7%. It also gave a residual activity (CAMK1D (human)) of 97.4%, a residual activity (CDC42BPB (human)) of 105% and a residual activity (CDK5 CDK5R1 p35 (human)) of 91.4%. For the same molecule, the residual activity (CDK9 CCNT1 (human)) was 51.3%, the residual activity (CHUK (human)) was 105% and the residual activity (CLK3 (human)) was 93.9%. It also gave a residual activity (CSNK1E (human)) of 96.7%, a residual activity (CSNK2A2 (human)) of 87.6% and a residual activity (EPHA2 (human)) of 101%. The residual activity (EPHA5 (human)) was 96.1%, the residual activity (ERBB4 (human)) was 59.6% and the residual activity (FGFR4 (human)) was 74.6%. For the same molecule, the residual activity (GRK4 (human)) was 91.6%, the residual activity (HIPK3 (human)) was 102% and the residual activity (IKBKB (human)) was 110%. The residual activity (MAP3K11 (human)) was 13.3%, the residual activity (MAPK1 (human)) was 94.8% and the residual activity (MAPK12 (human)) was 102%. It also gave a residual activity (MAPK13 (human)) of 122%, a residual activity (MAPK3 (human)) of 103% and a residual activity (MARK4 (human)) of 92.6%. It also gave a residual activity (NLK (human)) of 97%, a residual activity (NTRK1 (human)) of 104% and a residual activity (NTRK2 (human)) of 85.8%. For the same molecule, the residual activity (NTRK3 (human)) was 40%, the residual activity (PAK3 (human)) was 100% and the residual activity (PKN2 (human)) was 76.9%. It also gave a residual activity (PRKACA (human)) of 94%, a residual activity (PRKCE (human)) of 12.8% and a residual activity (PRKCG (human)) of 51.6%. For the same molecule, the residual activity (PRKG1 (human)) was 88.8% and 89.3%, the residual activity (PRKG2 (human)) was 80.3% and the residual activity (RAF1 (human)) was 105%. For the same molecule, the residual activity (ROCK2 (human)) was 100%, the residual activity (STK11 (human)) was 89.9% and the residual activity (TGFBR2 (human)) was 134%. The residual activity (TSSK1B (human)) was 102%, the residual activity (ULK1 (human)) was 90.1% and the residual activity (WNK3 (human)) was 100%.
